# Reference: US9695191B2, “Conformationally constrained, fully synthetic macrocyclic compounds” (POLYPHOR AG, priority 2009, dated 2017)
# How the values were obtained:
# [1] = Metabolic stability, human microsomes; assay type: in vitro ADME; settings: 37° C.; for Metabolic Stability 60 min hum: % of the initial 0 minutes value at 60 min, 10 μM; for Metabolic Stability T ½ [min] hum: 10 μM compound, 1 mg/ml microsomal protein, sampling up to 60 min
# Experimental: (§1) Microsomes from a human 50 donor mixed gender pool and 1:1 mixtures of microsomes from CD-1 mouse single-gender pools are purchased from Celsis (Belgium). The enzymatic reaction is performed in a buffer containing an NADPH regeneration system and microsomes with the following end concentrations: 100 mM potassium phosphate buffer (all from Sigma), 1 mg/mL glucose-6-phosphate, 1 mg/mL β-nicotinamide adenine dinucleotide phosphate (NADP), 0.65 mg/mL magnesium chloride, 0.8 units/mL of glucose-6-phosphate dehydrogenase (prediluted with 5 mM citrate buffer), 10 μM compound and 1 mg/ml microsomal protein. Compounds are incubated at 37° C. in duplicates and samples are taken after 0, 20 and 60 minutes. After acetonitrile precipitation (2 volumes) and HPLC/MS/MS analysis metabolic turnover is expressed in % of the initial 0 minutes value and half life T½ (min) is calculated. Verapamil for human and propranolol for mouse are used as reference and are assayed with every experimental set. • F. P. Guengerich, Analysis and Characterization of Enzymes; in: Principles and Methods of Toxicology; A. W. Hayes (Ed.) Raven Press: New York, 1989, 777-813. • R. Singh et al., In vitro metabolism of a potent HIV-protease inhibitor (141W94) using rat, monkey and human liver S9, Rapid Commun. Mass Spectrom. 1996, 10, 1019-1026. 5. Results
# [2] = both, CD-1, mouse, 10 μM
# Experimental: (§2) Example compounds were dissolved in DMSO/H2O 90:10 to a final concentration of 10 mM for plasma stability determination and metabolic stability determination.
# (§3) Human plasma (3-5 donors, Blutspendedienst SRK, Basel) and CD-1 mouse plasma (mixed gender pool>50 animals, Innovative Research, CA, USA) are both sodium citrate stabilized. The assay is performed in triplicates at 10 μM compound concentration and 37° C. Samples are taken at 0, 15, 60, and 240 minutes and stopped by precipitation with 2 volumes of acetonitrile. The supernatant is collected, evaporated and reconstituted in a 5% acetonitrile solution to be analyzed by HPLC/MS/MS. The resulting peak area counts are expressed in percent of the 0 value and used to determine the endpoint stability in % and the half life T½ in minutes. In order to monitor assay integrity the degradation of propantheline is assayed with every experimental set
# [3] = Metabolic stability, CD-1 mouse microsomes; assay type: in vitro ADME; settings: 37° C.; for Metabolic Stability 60 min mouse: % of the initial 0 minutes value at 60 min, 10 μM; for Metabolic Stability T ½ [min] mouse: 10 μM compound, 1 mg/ml microsomal protein, sampling up to 60 min
# Experimental: as §1
# [4] = human, 10 μM
# Experimental: as §2, §3
Metabolic Stability 60 min hum [1],Plasma Stability 240 min mouse [2],Metabolic Stability 60 min mouse [3],Plasma Stability 240 min hum [4],Metabolic Stability T ½ [min] hum [1],Metabolic Stability T ½ [min] mouse [3],Structure (SMILES)
74%,100%,77%,100%,,,"CN(C)CCNC(=O)[C@@H]1CCC(=O)N(C)CC(=O)N2C[C@@H](NC(=O)Cc3c[nH]c4ccccc34)C[C@H]2COc2ccc(F)cc2C(=O)N1C [Ex. 11, (2S,11S,19aS)-N-[2-(dimethylamino)ethyl]-15-fluoro-2-{[2-(1H-indol-3-yl)acetyl]amino}-7,12-dimethyl-5,8,13-trioxo-2,3,6,7,8,9,10,11,12,13,19,19a-dodecahydro-1H,5H-pyrrolo [2,1-c][1,4,7,12]benzoxatriazacyclopentadecine-11-carboxamide]"
100%,100%,100%,77%,60 min,60 min,"CC(=O)N[C@H]1C[C@H]2COc3ccc(F)cc3C(=O)N(C)[C@H](C(=O)N3CCCC3)CCC(=O)N(C)CC(=O)N2C1 [Ex. 37, N-[(2S,11S,19aS)-15-fluoro-7,12-dimethyl-5,8,13-trioxo-11-(1-pyrrolidinylcarbonyl)-2,3,6,7,8,9,10,11,12,13,19,19a-dodecahydro-1H,5H-pyrrolo[2,1-c][1,4,7,12]benzoxatriazacyclopentadecin-2-yl]acetamide]"
100%,89%,98%,82%,,,"CCN(CC)[C@H]1C[C@H]2COc3ccc(F)cc3C(=O)N(C)[C@H](C(=O)N3CCCC3)CCC(=O)N(C)CC(=O)N2C1 [Ex. 43, (2S,11S,19aS)-2-(diethylamino)-15-fluoro-7,12-dimethyl-11-(1-pyrrolidinylcarbonyl)-2,3,6,7,9,10,11,12,19,19a-decahydro-1H,5H-pyrrolo[2,1-c][1,4,7,12] benzoxatriazacyclopentadecine-5,8,13-trione]"
10%,96%,83%,83%,,,"CN(C)CCNC(=O)[C@@H]1CCC(=O)N(C)CC(=O)N2C[C@@H](NC(=O)Cc3cccc4ccccc34)C[C@H]2COc2ccc(F)cc2C(=O)N1C [Ex. 49, (2S,11S,19aS)-N-[2-(dimethylamino)ethyl]-15-fluoro-7,12-dimethyl-2-{[2-(1-naphthyl)acetyl]amino}-5,8,13-trioxo-2,3,6,7,8,9,10,11,12,13,19,19a-dodecahydro-1H,5H-pyrrolo[2,1-c][1,4,7,12]benzoxatriazacyclopentadecine-11-carboxamide]"
78%,100%,100%,65%,,,"CCCCC(=O)N[C@@H]1C[C@H]2COc3ccc(F)cc3C(=O)N(C)[C@H](C(=O)N(C)CCN(C)C)CCC(=O)N(C)CC(=O)N2C1 [Ex. 78, (2R,11S,19aS)-N-[2-(dimethylamino)ethyl]-15-fluoro-N,7,12-trimethyl-5,8,13-trioxo-2-(pentanoylamino)-2,3,6,7,8,9,10,11,12,13,19,19a-dodecahydro-1H,5H-pyrrolo[2,1-c][1,4,7,12]benzoxatriazacyclopentadecine-11-carboxamide]"
91%,88%,95%,96%,,,"CN1CC(=O)N2C[C@@H](N)C[C@H]2COc2ccc(F)cc2C(=O)N(C)[C@@H](C(=O)NCc2ccc3ccccc3c2)CCC1=O [Ex. 91, (2S,11R,19aS)-2-amino-15-fluoro-7,12-dimethyl-N-(2-naphthylmethyl)-5,8,13-trioxo-2,3,6,7,8,9,10,11,12,13,19,19a-dodecahydro-1H,5H-pyrrolo[2,1-c][1,4,7,12] benzoxatriazacyclopentadecine-11-carboxamide]"
1%,100%,15%,100%,,,"CNC(=O)[C@H]1CCC(=O)N(C)CC(=O)N2C[C@@H](NC(=O)Cc3ccc4ccccc4c3)C[C@H]2COc2ccc(F)cc2C(=O)N1C [Ex. 93, (2S,11R,19aS)-15-fluoro-N,7,12-trimethyl-2-{[2-(2-naphthyl)acetyl]amino}-5,8,13-trioxo-2,3,6,7,8,9,10,11,12,13,19,19a-dodecahydro-1H,5H-pyrrolo[2,1-c][1,4,7,12] benzoxatriazacyclopentadecine-11-carboxamide]"
76%,93%,94%,100%,60 min,60 min,"CN1CC(=O)N2C[C@@H](NC(=O)CCC(=O)O)C[C@H]2COc2ccc(F)cc2C(=O)N(C)[C@@H](C(=O)NCc2ccc3ccccc3c2)CCC1=O [Ex. 95, 4-[((2S,11R,19aS)-15-fluoro-7,12-dimethyl-11-{[(2-naphthylmethyl)amino]carbonyl}-5,8,13-trioxo-2,3,6,7,8,9,10,11,12,13,19,19a-dodecahydro-1H,5H-pyrrolo [2,1-c][1,4,7,12]benzoxatriazacyclopentadecin-2-yl)amino]-4-oxobutanoic acid]"
97%,78%,100%,100%,,,"CN1CC(=O)N2C[C@@H](NC(=O)CN3CCCC3)C[C@H]2COc2ccc(F)cc2C(=O)N(C)[C@@H](C(=O)N2CCCC2)CCC1=O [Ex. 98, N-[(2S,11R,19aS)-15-fluoro-7,12-dimethyl-5,8,13-trioxo-11-(1-pyrrolidinylcarbonyl)-2,3,6,7,8,9,10,11,12,13,19,19a-dodecahydro-1H,5H-pyrrolo[2,1-c][1,4,7,12]benzoxatriazacyclopentadecin-2-yl]-2-(1-pyrrolidinyl)acetamide]"
0%,,4%,,,,"CCCCCCCCCC(=O)N[C@H]1CN(C)C(=O)c2cccc(c2)OC[C@@H]2C[C@H](NC(=O)Cc3c[nH]c4ccccc34)CN2C(=O)CN(C)C1=O [Ex. 213, N-[(4S,6S,13S)-6-{[2-(1H-indol-3-yl)acetyl]amino)-11,15-dimethyl-9,12,16-trioxo-2-oxa-8,11,15-triazatricyclo[15.3.1.0^4,8]henicosa-1(21),17,19-trien-13-yl]decanamide]"
,88%,32%,94%,,,"CN1CC(=O)N2C[C@H](NC(=O)Cc3ccc4ccccc4c3)C[C@H]2COc2ccc(cc2)C(=O)N(C)[C@H](C(=O)N2CCCC2)CCC1=O [Ex. 264, N-[(4S,6R,15S)-11,16-dimethyl-9,12,17-trioxo-15-(1-pyrrolidinylcarbonyl)-2-oxa-8,11,16-triazatricyclo[16.2.2.0^4,8]docosa-1(20),18,21-trien-6-yl]-2-(2-naphthyl)acetamide]"
